Test results as given in US4987132A, “Saturated heterocyclic carboxamide derivatives” (Yamanouchi Pharmaceutical Co., Ltd., priority 1987, dated 1991).
Structures can show the parent of a compound that is named as a salt. Where two headings read alike, the source gives them in different places.

Legend:
Format in all cases: cell-based, rabbit (Japan white, male)
[1] = tested on: platelet activating factor (PAF)-induced rabbit platelet aggregation in plasma; assay: PAF-induced platelet aggregation in rabbit platelet rich plasma; conditions: Oryctolagus cuniculus, Platelet, PAF 10^-8 M, compound added 2 minutes prior to PAF, rabbit PRP
Experimental: (§1) Method: Nine volumes of blood were drawn from the central ear artery of male rabbit (Japan white, 3 kg) directly into plastic syringe containing 1 volume of 3.8% sodium citrate. The blood was centrifuged at 270×g for 10 minutes at room temperature and the platelet rich plasma (PRP) was removed. The pellet was further centrifuged at 1,100×g for 15 minutes. The supernatant was used as platelet poor plasma (PPP). The platelet concentration was adjusted to 5×10^5 cells/μl with PPP. Platelet aggregation was measured by the method of G. V. R. Born and M. J. Cross [Journal of Physiology, 168, 178-195 (1963)] using a HEMA TRACER (Nikou Bio Science, Japan). Varying concentration of compounds were added to the PRP 2 minutes prior to PAF (10^-8 M). The extent of platelet aggregation was determined by the maximum change of light transmission, assigning the transmission of unstimulated PRP to be 0% and that of PPP to be as 100%. Percent inhibition with compound was calculated by dividing the percent aggregation in the presence of compound by that in the control, and then the IC50 values were calculated.

[2] = tested on: platelet aggregation induced by ADP; assay: platelet aggregation induced by ADP; conditions: ADP 3×10^-6 M; data not shown
Experimental: as §1, with “Varying concentration of compounds were added to the PRP 2 minutes prior to PAF (10^-8 M).” left out

[3] = tested on: platelet aggregation induced by arachidonic acid; assay: platelet aggregation induced by arachidonic acid; conditions: arachidonic acid 1×10^-4 M; data not shown
Experimental: as §1, with “Varying concentration of compounds were added to the PRP 2 minutes prior to PAF (10^-8 M).” left out

[4] = tested on: platelet aggregation induced by collagen; assay: platelet aggregation induced by collagen; conditions: collagen 10 μg/ml; data not shown
Experimental: as §1, with “Varying concentration of compounds were added to the PRP 2 minutes prior to PAF (10^-8 M).” left out

Row | Compound | IC50 ([1]; read-out: IC50 values) | IC50 ([1]; Table 1, read-out: IC50) | inhibition of platelet aggregation induced by ADP [2] | inhibition of platelet aggregation induced by arachidonic acid [3] | inhibition of platelet aggregation induced by collagen [4]
1 | CCCCCCCCN1CCN(C(=O)C2CSC(c3cccnc3)N2)CC1 (centres unmarked) [Example 90, 1-octyl-4-[2-(3-pyridyl)thiazolidin-4-ylcarbonyl]piperazine fumarate] | 28 to 85 nM | 67 nM | did not inhibit | did not inhibit | did not inhibit
2 | Cc1ccc(CCCN2CCN(C(=O)C3CSC(c4cccnc4)N3)CC2)cc1 (centres unmarked) [Example 119] | 28 to 85 nM | 79 nM | did not inhibit | did not inhibit | did not inhibit
3 | CC(CCN1CCN(C(=O)C2CSC(c3cccnc3)N2)CC1)c1ccccc1 (centres unmarked) [Example 142] | 28 to 85 nM |  | did not inhibit | did not inhibit | did not inhibit
